Measured values published in PMC7503848 (International Journal of Molecular Sciences, 2020).
Where two headings read alike, the source gives them in different places. No end group written: not given here.

Assays:
[1] = biological target: Myosin A-pTRGnn (myosin A tail, bacterial two-hybrid fusion) (Plasmodium falciparum) (UniProt Q8IDR3); test: two-hybrid; bacterial two-hybrid, liquid β-galactosidase assay, relative Miller units, average of three assays
myosin A tail [2] = assay type: cell-based, Plasmodium falciparum
myosin A-MTIP complex = test: Competitive ITC, pre-bound myosin A-MTIP complex into ZA1; assay type: binding, Plasmodium falciparum; details: 25 °C, pre-bound myosin A-MTIP complex (150 µM each) in syringe, 10 µM ZA1 in cell
Experimental: For the competitive ITC experiment, a pre-bound complex of MyoA-MTIP in an equal molar ratio (150 µM each) was taken in the syringe. The complex was used to titrate ZA1 (10 µM) present in the cell. As a control, the pre-bound MyoA-MTIP complex was titrated in buffer only. All parameters were kept identical to the one-on-one ITC experiment. Origin software was used for data analysis and for calculating binding parameters like stoichiometry (N), binding constant (Kd), and enthalpy change (ƍH).

myosin A/MTIP complex [3] = test: Competitive ELISA, inhibition of myosin A/MTIP interaction; assay type: binding, Plasmodium falciparum; details: 500 ng myosin A tail coated, MTIP 1 µM, ZA1 0, 0.5, 1, 2, 5 µM, 2 h 37 °C, anti-MTIP, 450 nm, triplicates
Experimental: For ELISA-based inhibition of the interaction between MyoA/MTIP complex using ZA1, 500 ng peptide was coated on Maxisorb ELISA plates, followed by overnight blocking at 4 °C. The bound peptide was overlaid with MTIP (1 µM) for 2 h at 37 °C. The plates were washed with wash buffer (1 × PBS, 0.05% Tween-20) thrice and overlaid with increasing concentrations of ZA1 (0 µM, 0.5 µM, 1 µM, 2 µM, 5 µM) for 2 h at 37 °C. […] Optical density was taken at 450 nm. All wells were put in triplicates.

myosin A tail [4] = test: ELISA-based interaction assay, ZA1 on coated myosin A tail; assay type: binding, Plasmodium falciparum; details: 500 ng myosin A tail coated, ZA1-His 0–2.5 µM overlaid, 2 h 37 °C, anti-His, 450 nm, triplicates
Description: The interaction between myosin A tail and ZA1 was confirmed through multiple protein–protein interaction studies. […] For this, myosin A tail was coated on the ELSIA plates, followed by overlaying of ZA1. After stringent washing, the binding of overlaid ZA1 protein was detected using an anti-His antibody.
(§1) All wells were put up in triplicates.

ESAT6 [5] = test: ELISA-based specificity control with unrelated protein ESAT6; assay type: binding, Mycobacterium tuberculosis; details: 500 ng ESAT6 coated, test protein overlaid, 450 nm
Description: as §1

myosin A tail [6] = test: Isothermal titration calorimetry, myosin A tail into ZA1; assay type: binding, Plasmodium falciparum; details: ITC200, 25 °C, phosphate buffer; 150 µM myosin A tail in syringe, 10 µM ZA1 in cell; single site model
Experimental: ITC experiments were performed using ITC200 Microcalorimeter (Malvern, UK) at 25 °C in phosphate buffer. The cell and syringe volumes were kept 310 µL and 40 µL, respectively. The syringe was loaded with 100 µM MyoA tail for MyoA/MTIP interaction study and 150 µM for MyoA/ZA1 interaction. The sample cell was loaded with 10 µM each of MTIP and ZA1. MTIP and ZA1 were titrated using MyoA tail in injections of 2 µL each except for the first injection that was 0.4 µL. In between each titration, a 150-s interval for stirring was kept to ensure that the signal returns to baseline. Throughout the experiment, constant stirring at 300 rpm was maintained to ensure proper mixing of reaction components. For both experiments, a corresponding buffer control was also set up in which PBS was taken in the syringe. The enthalpy changes of titrations were measured, and the baseline values were subtracted from the test samples. The data analysis was carried out using Origin software and curve-fitted to obtain stoichiometry (N), dissociation constant (Kd), and enthalpy change (ƍH).

myosin A/MTIP complex [7] = test: Bacterial three-hybrid assay, disruption of myosin A/MTIP complex; assay type: cell-based, Plasmodium falciparum
Description: For bacterial three-hybrid experiments, MyoA-pTRG and MTIP-pBT were used to co-transform R1 competent cells. The resulting co-transformants were checked for the presence of both plasmids by PCR using gene and vector-specific primers (MyoA For/pTRG Rev, MTIP For/pBT Rev). The resulting blue colonies were used to prepare competent cells that were subsequently transformed with ZA1-pMTSA or control pMTSA plasmid and plated on X-gal indicator plates, both in the presence or absence of L-arabinose (2% w/v). The plates were incubated at 30 °C for 48 h. The color of the colonies indicated the formation or disruption of myosin A/MTIP complex. The background and validation of bacterial three-hybrid assay have been described previously.
An arabinose gradient assay in liquid culture was performed, as described previously. Briefly, the mid-log phase culture was induced with varying concentrations of L-arabinose (0–4 mM) for 3 h at 37 °C. The cells were pelleted, and the levels of β-galactosidase were measured. E. coli BL21 (DE3) cells were induced with varying concentrations of L-arabinose (as described in the arabinose gradient assay). Whole-cell lysates of a 10 mL culture were used to analyze the expression of ZA1 using an anti-His antibody (1:2000 dilution).

MTIP = MTIP (Plasmodium falciparum, UniProt Q8I4W8); test: Competitive ITC, pre-bound Myosin A-ZA1 complex into MTIP; assay type: binding; details: complex in syringe, MTIP in cell
Experimental: Figure S1: Myosin A tail and expression of MTIP. (a) Synthesized Myosin A tail peptide (2.5 kDa) resolved on Tris-tricine polyacrylamide gel.
(b) Purified MTIP-His by Ni-NTA Column chromatography. Commassie stained 15% polyacrylamide gel. Lane M: Marker, Lane 1: Purified MTIP. (17.4 kDa). Western blot of purified MTIP-His using anti-MTIP.
Figure S2: Negative control for ELISA and ITC experiments. (a) 500 ng non-specific Mycobacterial protein ESAT6 was coated on ELISA plates and indicated concentrations of ZA1 and MTIP were overlaid respectively. No interaction was observed between the coated and overlaid proteins. (b) The raw calorimetric data denoting the amount of heat produced following each injection of Myosin A from syringe into cell containing buffer only. No heat changes were observed when Myosin A was added into buffer. (c) Heat changes for competitive binding when pre-bound Myosin A-ZA1 complex is titrated from syringe into MTIP in the cell. […]
break when added into MTIP. […]

[8] = biological target: T1, recombinant MTIP-His (61–204 residues) (Plasmodium falciparum, UniProt Q8I4W8 61-204); test: ITC; ITC200, 25 °C, phosphate buffer; MyoA tail in the syringe (100 µM for MTIP, 150 µM for ZA1), 10 µM MTIP or ZA1 in the cell; single site model; details: both partners purified
T1 construct: source: E. coli BL21 (DE3), purified (Ni-NTA, native conditions, dialysed against PBS); not shown: His6, C-terminal, kept
T1 sequence: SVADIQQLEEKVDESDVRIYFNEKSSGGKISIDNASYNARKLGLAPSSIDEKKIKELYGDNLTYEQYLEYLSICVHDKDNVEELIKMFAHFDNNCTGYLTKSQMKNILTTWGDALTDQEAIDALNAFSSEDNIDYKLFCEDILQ

ESAT6 [9] = assay type: cell-based, Mycobacterium tuberculosis; details: ESAT6-pTRGnn versus CFP10-pBTnn, average of three independent assays ± standard deviation
ZA1S peptide = biological target: T2, ZA1S peptide; test: far-Western, overlay or dot blot; 5 µg ZA1S peptide, BSA and non-specific peptide spotted on nitrocellulose; overlaid with 5 µg/mL biotinylated myosin A tail in 1% BSA/PBST, 2 h, room temperature; anti-biotin antibody; details: both partners purified
T2 construct: also called shortened ZA1
T2 chain: DIDIDIMHE

[10] = X-gal blue-white selection, DI-EL dicodon library, 30 °C, 48 h

“MTIP-pBT (MTIP, bacterial two-hybrid fusion) (from UniProt Q8I4W8 61-204) (domain or fragment)” gave a relative enzyme activity (Miller Units) [1] of 96.1 Miller Units.

In the case of “SGRHVFKELDIELDIDIDIDIDIDIDIELMHDIQLDIELDIDIMHMHDIPGDIDIMHSTMHQLDIELMHPGDIDIQLFKHVAAA [ZA3]”, the “Interaction with myosin A tail in library screening” value (“Interaction … in library screening” for short) (myosin A tail [2]; [10]) is reported as “positive interactions”.

With “SGRHVFKPGMHELDIELELDIELDIDIDIELDIDIELDIDIDIDIQLYVDIELMHELDIDIRTELELDIPGELEFDIELDIDIFKHVAAA [ZA2]” the “Interaction … in library screening” value (myosin A tail [2]; [10]) was “positive interactions”.

For “SGRHVFKQLDIDIDIMHELDIELELDIDIDIMHPGDIDIDIDIDIQLDIELDIMHDIDIDIMHMHQLELELDIFKHVAAA [ZA1]”, the Kd (myosin A-MTIP complex) was 57 µM, the “MTIP bound to myosin A tail” value (myosin A/MTIP complex [3]) was “The amount of MTIP bound to myosin A tail reduced with increasing ZA1” and the “Interaction with myosin A tail” value (myosin A tail [4]) was “positive interaction between myosin A and ZA1 that was concentration-dependent”. The “Interaction with unrelated protein ESAT6” value (ESAT6 [5]) was “no interaction was found”, the “Interaction … in library screening” value (myosin A tail [2]) was “positive interactions” and the “Intensity of blue color on bacterial two-hybrid selection plate” value (myosin A tail [2]; X-gal plate, versus the other library hits) was “maximum intensity of blue color”. The “Relative enzyme activity (β-galactosidase)” value (myosin A tail [2]; myosin A-pTRGnn versus ZA1-pBTnn, average of three independent assays ± standard deviation) was 83.48 ± 0.82 Miller units, the Kd (myosin A tail [6]) was 719 nM and the “Colony color change (disruption of myosin A/MTIP complex)” value (myosin A/MTIP complex [7]; E. coli triple co-transformant, X-gal plate with L-arabinose (2% w/v), 30 °C, 48 h) was “the color of the colonies changed from blue to white, indicating the disruption of myosin A/MTIP complex”. The “Strength of myosin A/MTIP interaction (β-galactosidase)” value (myosin A/MTIP complex [7]; L-arabinose gradient 0–4 mM, 3 h, 37 °C, average of three independent assays) was “A reduction in the strength of interaction was observed with increasing amounts of ZA1”, the “Completeness of myosin A/MTIP disruption” value (myosin A/MTIP complex [7]; bacterial three-hybrid) was “we did not find a complete disruption of myosin A/MTIP complex” and the “Heat changes on titration of pre-bound Myosin A-ZA1 complex into MTIP” value (MTIP) was “No heat changes are observed”.

B1: Myosin A tail (798–818 residues), peptide (peptide)
chain: NKNIPSLLRVQAHIRKKMVAQ
notes: source: acquired from Genescript (peptide)
For B1, the Kd [8] was 452 nM and the dH [8] was -4.7 kcal/mol.

B2: CFP10: Culture filtrate protein 10 kDa, Mycobacterial protein, positive control partner of ESAT6 (protein)
chain: MAEMKTDAATLAQEAGNFERISGDLKTQIDQVESTAGSLQGQWRGAAGTAAQAAVVRFQEAANKQKQELDEISTNIRQAGVQYSRADEEQQQALSSQMGF
B2 was tested, and the “Relative enzyme activity (β-galactosidase), positive control” value (ESAT6 [9]; experiment of Figure 1c) was 79.17 ± 1.67 Miller Units and the “Relative enzyme activity (β-galactosidase), positive control” value (ESAT6 [9]; experiment of Figure 2b) was 98.02 ± 2.07 Miller units.

B3: biotinylated myosin A tail (peptide, UniProt Q8IDR3 798-818, looked up)
chain: NKNIPSLLRVQAHIRKKMVAQ
modifications: also: biotinylated
notes: also called myosin A peptide; MyoA tail
B3: binds (ZA1S peptide).
